According to patent publication US3989701A, “Diamine-benzophenones and a process for the preparation thereof” (Richter Gedeon Vegyeszeti Gyar Rt., priority 1973, dated 1976):

Key:
[1] = Rotarod / ataxis and reflex retardation
LD50 (acute toxicity) = conditions: in vivo, po
liver microsomal enzymes = test: Enzyme inductive effect (shortening of duration of sleeping after hexobarbital); type: in vivo, Wistar female rats; conditions: for Average duration of sleeping ± S.E.: Dosage 60 mg./kg. p.o., hexobarbital 40 mg./kg. i.v. 24 hours later, control 27.4 ± 3.02
Method: To investigate the enzyme inductive effect, Wistar female rats, each weighing 40 to 50 g. were treated with pure solvent, or with a dosage of 60 mg./kg. of phenobarbital or the compound to be tested, respectively. 24 hours after this treatment 40 mg./kg. of hexobarbital were administered intravenously into the animals. The decrease of the elimination period and the liver enzyme induction was expressed as the shortening of duration of sleeping.

[2] = Effect on the central nervous system; type: in vivo; conditions: in words
yohimbine lethality = test: Potentiation of yohimbine lethality; type: in vivo, CFLP male mice
Method: To investigate the yohimbine-potentiating effect, CFLP male mice each weighing 20 to 25 g. were treated orally with the compounds according to the invention, and 1 hour after this treatment yohimbine was injected subcutaneously into the animals in a dosage of 20 mg./kg.

[3] = Antipyretic effect (yeast- and pyragro-treated rats, rectal temperature); type: in vivo, male rats; conditions: Dosage 40 mg./kg. orally; rectal temperature recorded for 5 hours
Method: To test the antipyretic effect, a 15% yeast suspension was administered to male rats each weighing 180 ±10 g. No food was given to the animals, they could consume, however, arbitrary amount of water. 16 hours after the administration of yeast the rectal temperature of the animals was taken, and the animals were treated with pyragro in an intravenous dosage of 50 M bact./animal. The compound to be tested was administered orally into the animals, thereafter the change in rectal temperature both for the treated and the control animals was recorded for 5 hours, using an "Elab" type electrothermometer. Phenacetine, used as reference substance, and the compounds of the invention were administered in dosages of 40 mg./kg. body weight.

[4] = Harmful effects on the kidneys; type: in vivo; conditions: in words, compared with phenacetine

SMILES: CN(C)CCCN1c2ccccc2CCc2ccccc21 [Imipramine, 5-(3-dimethylaminopropyl)-10,11-dihydro-5H-dibenz(b,f)azepin, reference compound]
- TD50 ([1]; rotarod): 28 mg/kg

SMILES: CC(C)CN(CC(C)C)c1ccc(C(=O)c2ccccc2)cc1N [C7, 3-amino-4-(N,N-diisobutylamino)-benzophenone]
- LD50 (LD50 (acute toxicity)): > 600 mg/kg
- Average duration of sleeping ± S.E. (liver microsomal enzymes): 10.0 ± 1.92 min

SMILES: CCC1(c2ccccc2)C(=O)NC(=O)NC1=O [Phenobarbital, reference compound]
- LD50 (LD50 (acute toxicity)): 240 mg/kg
- Average duration of sleeping ± S.E. (liver microsomal enzymes): 5.4 ± 1.63 min

SMILES: CCC(=O)Nc1cc(C(=O)c2ccccc2)ccc1N1CCOCC1.Cl [C11, 3-propionylamino-4-morpholino-benzophenone HCl]
- effect on the central nervous system [2]: no effect on the central nervous system
- LD50 (LD50 (acute toxicity)): > 450 mg/kg
- Average duration of sleeping ± S.E. (liver microsomal enzymes): 9.0 ± 1.30 min
- enzyme-inducing effect (in words) (liver microsomal enzymes; compared with phenobarbital where stated): the same in strength as for phenobarbital

SMILES: CN1CCN(c2ccc(C(=O)c3ccccc3)cc2N)CC1 [C3, 3-amino-4-(N-methyl-piperazino)-benzophenone]
- TD50 (in vivo): 160 mg/kg
- ataxis or reflex retardation ([1]; in the active dosage): causes no ataxis or reflex retardation
- ED50 (yohimbine lethality; Mus musculus, sc, yohimbine 20 mg./kg. s.c. 1 hour after treatment, deaths counted at 24 hours, probit analysis): 30 mg/kg
- antidepressant activity / yohimbine lethality increasing effect (in words) (yohimbine lethality; compared with imipramine where stated): inferior in antidepressant activity to imipramine
- LD50 (LD50 (acute toxicity)): > 3000 mg/kg

SMILES: CCOc1ccc(NC(C)=O)cc1 [Phenacetine, reference compound]
- LD50 (LD50 (acute toxicity)): 2400 mg/kg
- Decrease of temperature [3]: -1.0 °C

SMILES: CCCCCCCCCCCCCCCC(=O)Nc1cc(C(=O)c2ccccc2)ccc1N1CCOCC1 [C12, 3-palmitoylamino-4-morpholino-benzophenone]
- LD50 (LD50 (acute toxicity)): > 500 mg/kg
- Average duration of sleeping ± S.E. (liver microsomal enzymes): 10.4 ± 1.02 min

SMILES: Nc1cc(C(=O)c2ccccc2)ccc1N1CCOCC1 [C8, 3-amino-4-morpholino-benzophenone]
- harmful effects on the kidneys [4]: no harmful effects on the kidneys
- LD50 (LD50 (acute toxicity)): > 3000 mg/kg
- Decrease of temperature [3]: -1.0 °C

SMILES: CCN(c1ccccc1)c1ccc(C(=O)c2ccccc2)cc1N [C6, 3-amino-4-(N-ethyl-N-phenylamino)-benzophenone]
- LD50 (LD50 (acute toxicity)): > 400 mg/kg
- Average duration of sleeping ± S.E. (liver microsomal enzymes): 11.6 ± 2.71 min
